Laboratory results taken from PubChem BioAssay AID292 (DTP/NCI, 2004).
Several values for one entry are separate records, joined by “and”; a condition that tells them apart may be missing. Identical values can stand only once. Inconclusive results and toxic doses are left out.

Tested on: B6C3F1 mice, ip Sarcoma M5076, median survival T/C
Experiment: NCI In Vivo Anticancer Drug Screen. Data for tumor model Sarcoma M5076 (intraperitoneal) in B6C3F1 mice
Details: endpoint: median survival time, higher = longer survival
In short: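 The readout is a ratio of survival in drug-treated animals to survival in animals given vehicle alone, taken in mice bearing a transplanted tumour line.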

## CC1(C)N=C(N)N=C(N)N1c1ccc(CCCCc2ccc(S(=O)(=O)F)cc2Cl)c(Cl)c1
dose: 15.0 mg/kg/injection, schedule: Q04DX004 (ip), vehicle: Klucel (hydroxypropylcellulose) (HPC)
  T/C: 204 % of control
dose: 30.0 mg/kg/injection, schedule: Q04DX004 (ip), vehicle: Klucel (hydroxypropylcellulose) (HPC)
  T/C: 186 % of control
dose: 60.0 mg/kg/injection, schedule: Q04DX004 (ip), vehicle: Klucel (hydroxypropylcellulose) (HPC)
  T/C: 270 % of control
dose: 120.0 mg/kg/injection, schedule: Q04DX004 (ip), vehicle: Klucel (hydroxypropylcellulose) (HPC)
  T/C: 270 % of control
dose: 240.0 mg/kg/injection, schedule: Q04DX004 (ip), vehicle: Klucel (hydroxypropylcellulose) (HPC)
  T/C: 270 % of control

## CCOC(=O)CC1(C)SCCN1C(=O)OCC (stereo unspecified)
dose: 50.0 mg/kg/injection, schedule: Q04DX004 (ip), vehicle: saline with Tween-80
  T/C: 114 % of control
dose: 100.0 mg/kg/injection, schedule: Q04DX004 (ip), vehicle: saline with Tween-80
  T/C: 114 % of control
dose: 200.0 mg/kg/injection, schedule: Q04DX004 (ip), vehicle: saline with Tween-80
  T/C: 122 % of control
dose: 400.0 mg/kg/injection, schedule: Q04DX004 (ip), vehicle: saline with Tween-80
  T/C: 103 % of control
dose: 800.0 mg/kg/injection, schedule: Q04DX004 (ip), vehicle: saline with Tween-80
  T/C: 98 % of control

## COc1ccc(CCN2C(=O)C(=O)N(c3cccc(Cl)c3)C2=O)cc1OC
dose: 43.75 mg/kg/injection, schedule: Q04DX004 (ip), vehicle: Klucel (hydroxypropylcellulose) (HPC)
  T/C: 88 % of control
dose: 87.5 mg/kg/injection, schedule: Q04DX004 (ip), vehicle: Klucel (hydroxypropylcellulose) (HPC)
  T/C: 91 % of control
dose: 175.0 mg/kg/injection, schedule: Q04DX004 (ip), vehicle: Klucel (hydroxypropylcellulose) (HPC)
  T/C: 88 % of control
dose: 350.0 mg/kg/injection, schedule: Q04DX004 (ip), vehicle: Klucel (hydroxypropylcellulose) (HPC)
  T/C: 98 % of control
dose: 700.0 mg/kg/injection, schedule: Q04DX004 (ip), vehicle: Klucel (hydroxypropylcellulose) (HPC)
  T/C: 92 % of control

## S=C1CCCCN1
dose: 6.25 mg/kg/injection, schedule: Q04DX004 (ip), vehicle: distilled water + alcohol
  T/C: 101 % of control
dose: 12.5 mg/kg/injection, schedule: Q04DX004 (ip), vehicle: distilled water + alcohol
  T/C: 99 % of control
dose: 25.0 mg/kg/injection, schedule: Q04DX004 (ip), vehicle: distilled water + alcohol
  T/C: 98 % of control and 103 % of control
dose: 50.0 mg/kg/injection, schedule: Q04DX004 (ip), vehicle: distilled water + alcohol
  T/C: 92 % of control and 94 % of control and 100 % of control
dose: 100.0 mg/kg/injection, schedule: Q04DX004 (ip), vehicle: distilled water + alcohol
  T/C: 88 % of control and 100 % of control (2×)

## COc1cccc(Sc2ccc([N+](=O)[O-])c3no[n+]([O-])c23)c1
dose: 3.75 mg/kg/injection, schedule: Q04DX004 (ip), vehicle: saline with Tween-80
  T/C: 105 % of control
dose: 7.5 mg/kg/injection, schedule: Q04DX004 (ip), vehicle: saline with Tween-80
  T/C: 106 % of control
dose: 15.0 mg/kg/injection, schedule: Q04DX004 (ip), vehicle: saline with Tween-80
  T/C: 105 % of control
dose: 30.0 mg/kg/injection, schedule: Q04DX004 (ip), vehicle: saline with Tween-80
  T/C: 101 % of control
dose: 60.0 mg/kg/injection, schedule: Q04DX004 (ip), vehicle: saline with Tween-80
  T/C: 98 % of control

## NC(C/[N+]([O-])=N/O)C(=O)O (stereo unspecified)
dose: 30.0 mg/kg/injection, schedule: Q04DX005 (ip), vehicle: alkali diluted with saline
  T/C: 93 % of control
dose: 120.0 mg/kg/injection, schedule: Q04DX005 (ip), vehicle: alkali diluted with saline
  T/C: 103 % of control
dose: 240.0 mg/kg/injection, schedule: Q04DX005 (ip), vehicle: alkali diluted with saline
  T/C: 118 % of control

## N#Cc1c(-c2ccccc2)c(-c2ccccc2)nn(CC(=O)O)c1=O
dose: 50.0 mg/kg/injection, schedule: Q04DX004 (ip), vehicle: distilled water + Tween-80
  T/C: 102 % of control
dose: 100.0 mg/kg/injection, schedule: Q04DX004 (ip), vehicle: distilled water + Tween-80
  T/C: 102 % of control
dose: 200.0 mg/kg/injection, schedule: Q04DX004 (ip), vehicle: distilled water + Tween-80
  T/C: 97 % of control

## CCOC(=O)N(C)N=NC
dose: 1.3 mg/kg/injection, schedule: Q04DX004 (ip), vehicle: saline
  T/C: 110 % of control
dose: 2.16 mg/kg/injection, schedule: Q04DX004 (ip), vehicle: saline
  T/C: 119 % of control
dose: 3.6 mg/kg/injection, schedule: Q04DX004 (ip), vehicle: saline
  T/C: 122 % of control
dose: 10.0 mg/kg/injection, schedule: Q04DX004 (ip), vehicle: saline
  T/C: 155 % of control
dose: 30.0 mg/kg/injection, schedule: Q04DX004 (ip), vehicle: saline
  T/C: 158 % of control
dose: 60.0 mg/kg/injection, schedule: Q04DX004 (ip), vehicle: saline
  T/C: 168 % of control

## O=c1c(O)c(-c2cc(O)c(O)c(O)c2)oc2cc(O)cc(O)c12
dose: 75.0 mg/kg/injection, schedule: Q04DX004 (ip), vehicle: saline with Tween-80
  T/C: 111 % of control
dose: 150.0 mg/kg/injection, schedule: Q04DX004 (ip), vehicle: saline with Tween-80
  T/C: 111 % of control
dose: 300.0 mg/kg/injection, schedule: Q04DX004 (ip), vehicle: saline with Tween-80
  T/C: 101 % of control
dose: 600.0 mg/kg/injection, schedule: Q04DX004 (ip), vehicle: saline with Tween-80
  T/C: 99 % of control
